In article PMC7614683, “A small molecule PI3Kα activator for cardioprotection and neuroregeneration” (Nature, 2023):

System: PI3Kα-KO A549 cells
Experiment: TIRF microscopy of PIP3 reporter, PI3Kα-KO A549
Type: cell-based, human
Excerpt: Generation of pooled PIK3CA-null A549 cells was outsourced to Synthego Corporation. Briefly, the PIK3CA gene was targeted with synthetic ribonucleoprotein (RNP) complexes including the following single guide RNA (sgRNA) sequence: 5’-[…]-3’. This sequence is located within PIK3CA exon 3 and covers the coding sequence preceding the p110α RAS binding domain, with the Cas9 cut site corresponding to amino acids 156/157 of p110α). In parallel, control cultures were exposed to the Cas9 protein without sgRNA, henceforth referred to as “WT cultures”. Single-cell clones were established from both WT and targeted cultures by limiting dilution, thereby ensuring seeding of maximum 1 cell per well of a 96-well plate. To promote recovery, subcloned cells in 96-wells were cultured in a 1:1 mixture of standard A549 complete medium and conditioned medium. Conditioned medium was prepared from WT cultures 2 days post-passaging by centrifuging the medium at 1000g for 10 min, followed by 0.22 μm PES filtration and storage at 4°C (-80°C for storage exceeding 2 weeks). The medium was replenished every 2-3 days, as gently as possible to prevent cells from dislodging. Once cells reached sub-confluence, they were expanded to 24-well plates and 25 cm[2] flasks, followed by genotyping and cell banking. […]

CCN1CCN(c2ccc(Nc3cc(Nc4cccc5c4N(C(C)=O)CC5)ccn3)cc2)CC1 [Compound 1938]
plasma membrane PIP3 (biosensor): not seen
